In PMC5221612 (Journal of the American Chemical Society, 2016):
Read-outs that look alike come from different tables or passages of the source.

How the values were obtained:
[1] = tested on: GT-1a NS3/4A protease with D168Q; format: biochemical, Hepatitis C virus genotype 1a; conditions: GT-1a D168Q vs GT-1 WT protease
[2] = target: GT-1 HCV NS3/4A protease; conditions: read-out: Ki against GT-1 NS3/4A protease; GT-1a wild type; cited from earlier work
[3] = target: GT-3 HCV NS3/4A protease (Hepatitis C virus genotype 3a, UniProt Q81258); assay: biochemical
[4] = tested on: GT-3 HCV NS3/4A protease; assay: biochemical; design: species or system Hepatitis C virus genotype 3a; conditions: for fold change (FC) in Ki, GT-3 relative to GT-1: GT-3 Ki / GT-1 Ki; for loss in affinity in GT-3 relative to GT-1: GT-3 vs GT-1
[5] = tested on: HCV GT-3 subgenomic replicon; conditions: viral subgenomic replicon models; range over the named PIs; cited from earlier work
[6] = target: GT-1a NS3/4A protease with D168Q (Hepatitis C virus genotype 1a, UniProt P27958, D1194Q); format: biochemical; conditions: GT-1a D168Q
[7] = tested on: GT-1a NS3/4A protease with R123T/I132L/D168Q (1a3a); assay: Enzyme inhibition assay, chimeric 1a3a NS3/4A protease; format: biochemical, Hepatitis C virus; conditions: 1a3a chimera vs GT-1 WT

Compound | fold change (loss) in potency, D168Q relative to GT-1 WT [1] [fold] | Ki [2] [nM] | Ki [3] [nM] | fold change (FC) in Ki, GT-3 relative to GT-1 [4] [fold] | loss in activity against GT-3 compared to GT-1 [5] | inhibition constant against D168Q (in words) [6] | loss in potency, R123T/I132L/D168Q (1a3a) relative to GT-1 WT [7] | Ki ([3]; read-out: Ki against GT-3 NS3/4A protease, GT-3a) [nM] | loss in affinity in GT-3 relative to GT-1 [4] | Ki in GT-3 (in words) [3]
CCC[C@H](NC(=O)[C@@H]1[C@H]2CCC[C@H]2CN1C(=O)[C@@H](NC(=O)[C@@H](NC(=O)c1cnccn1)C1CCCCC1)C(C)(C)C)C(=O)C(=O)NC1CC1 [telaprevir] | 1.2 | 33 | 266 | 8 |  |  |  |  |  | 
COc1ccc2c(O[C@@H]3C[C@H]4C(=O)N[C@]5(C(=O)NS(=O)(=O)C6CC6)C[C@H]5/C=C\CCCCN(C)C(=O)[C@@H]4C3)cc(-c3nc(C(C)C)cs3)nc2c1C [simeprevir] |  |  |  |  | 140- to 1500 fold |  |  |  |  | 
COc1ccc2nc3c(nc2c1)O[C@@H]1C[C@H]2C(=O)N[C@]4(C(=O)NS(=O)(=O)C5(C)CC5)C[C@H]4/C=C/CCCCC[C@H](NC(=O)O[C@@H]4CCC[C@H]4CCCCC3)C(=O)N2C1 [MK-6325] | 4 | 0.1 |  |  |  | subnanomolar | 2–3 orders of magnitude | 31 | 2–3 orders of magnitude | 
CC(C)(C)OC(=O)N[C@H]1CCCCC/C=C\[C@@H]2C[C@@]2(C(=O)NS(=O)(=O)C2CC2)NC(=O)[C@@H]2C[C@@H](OC(=O)N3Cc4cccc(F)c4C3)CN2C1=O [DAN, danoprevir] | 30 | 1 |  | 878 | 140- to 1500 fold |  | 2–3 orders of magnitude |  |  | low to submicromolar
C=C[C@@H]1C[C@]1(NC(=O)[C@@H]1C[C@@H](Oc2ncc(OC)c3ccc(Cl)cc23)CN1C(=O)[C@@H](NC(=O)OC(C)(C)C)C(C)(C)C)C(=O)NS(=O)(=O)C1CC1 [ASV, asunaprevir] | 72 | 2.7 |  | 975 |  |  | 2–3 orders of magnitude |  |  | low to submicromolar
CC(C)(C)NC(=O)N[C@H](C(=O)N1C[C@H]2[C@@H]([C@H]1C(=O)NC(CC1CCC1)C(=O)C(N)=O)C2(C)C)C(C)(C)C (stereo partly drawn) [boceprevir] | 0.7 | 33 | 71 | 2.2 |  |  |  |  |  | 
C=C[C@@H]1C[C@]1(NC(=O)[C@@H]1C[C@@H]2CN1C(=O)[C@H](C(C)(C)C)NC(=O)O[C@@H]1C[C@H]1CCCCCc1nc3ccc(OC)cc3nc1O2)C(=O)NS(=O)(=O)C1CC1.O [grazoprevir] |  | 0.1 |  |  | 140- to 1500 fold |  | 2–3 orders of magnitude |  | 2–3 orders of magnitude | 
CC[C@@H]1C[C@]1(NC(=O)[C@@H]1C[C@@H]2CN1C(=O)[C@H](C(C)(C)C)NC(=O)OCC(C)(C)CCCCc1cccc3c1CN(C3)C(=O)O2)C(=O)NS(=O)(=O)C1CC1 [VAN, vaniprevir] | 44 | 0.7 |  | 533 |  |  | 2–3 orders of magnitude |  |  | low to submicromolar
CC[C@@H]1C[C@]1(NC(=O)[C@@H]1C[C@@H](Oc2cc(-c3csc(NC(C)C)n3)nc3c(Cl)c(OCCN4CCOCC4)ccc23)CN1C(=O)[C@@H](NC(=O)O[C@@H]1C[C@@H]2C[C@@H]2C1)C(C)(C)C)C(=O)O [GS-9451] |  |  |  |  | 140- to 1500 fold |  |  |  |  | 
